The subject of assay [1] is M. tuberculosis ATCC. Briefly: MIC against M. tuberculosis strains, agar dilution. It counts as cell-based, Mycobacterium tuberculosis. The note with it: S. No. 01.Mt-, Middle Brook 7H10 + OADC, 37° C., 14-21 days. On the technique in general: Agar dilution tests growth on a series of plates holding different concentrations.
The subject of assay [2] is M. tuberculosis 35801. The experiment in a line: MIC against M. tuberculosis strains, agar dilution. It counts as cell-based, Mycobacterium tuberculosis. The note with it: S. No. 02 Mt-, Middle Brook 7H10 + OADC, 37° C., 14-21 days.
The subject of assay [3] is M. tuberculosis H37Rv. The experiment in a line: MIC against M. tuberculosis strains, agar dilution. It counts as cell-based, Mycobacterium tuberculosis. The conditions noted are these: S. No. 04 Mt-, Middle Brook 7H10 + OADC, 37° C., 14-21 days.
The test system of assay [4] is M. tuberculosis SGPGI. Briefly: MIC against M. tuberculosis strains, agar dilution. Type of assay: cell-based, Mycobacterium tuberculosis. The note with it: S. No. 05 Mt-, Middle Brook 7H10 + OADC, 37° C., 14-21 days.
Assay [5] has as its system M. tuberculosis SGPGI. The experiment in a line: MIC against M. tuberculosis strains, agar dilution. Type of assay: cell-based, Mycobacterium tuberculosis. The note with it: S. No. 06 Mt-, Middle Brook 7H10 + OADC, 37° C., 14-21 days.
For assay [6], the system named is M. tuberculosis SGPGI. The experiment in a line: MIC against M. tuberculosis strains, agar dilution. It counts as cell-based, Mycobacterium tuberculosis. The conditions noted are these: S. No. 07 Mt-, Middle Brook 7H10 + OADC, 37° C., 14-21 days.
Assay [7] concerns M. tuberculosis M-164. Briefly: MIC against M. tuberculosis strains, agar dilution. Type of assay: cell-based, Mycobacterium tuberculosis. The conditions noted are these: Middle Brook 7H10 + OADC, 37° C., 14-21 days.
The subject of assay [8] is M. tuberculosis V-3093. Briefly: MIC against M. tuberculosis strains, agar dilution. It counts as cell-based, Mycobacterium tuberculosis. The conditions noted are these: Middle Brook 7H10 + OADC, 37° C., 14-21 days.
The test system of assay [9] is M. tuberculosis PC. The experiment in a line: MIC against M. tuberculosis strains, agar dilution. It counts as cell-based, Mycobacterium tuberculosis. The conditions noted are these: S. No. 20 Mt-, Middle Brook 7H10 + OADC, 37° C., 14-21 days.
The test system of assay [10] is M. tuberculosis H37Ra. Briefly: MIC against M. tuberculosis strains, agar dilution. It counts as cell-based, Mycobacterium tuberculosis. The conditions noted are these: S. No. 24 Mt-, Middle Brook 7H10 + OADC, 37° C., 14-21 days.
For assay [11], the system named is M avium ATCC 25291. The experiment in a line: MIC against MAC strains, agar dilution. Type of assay: cell-based, Mycobacterium avium. The conditions noted are these: S. No. 02 Ma-2, M avium ATCC 25291, Middle Brook 7H10 + OADC, 37° C., 14-21 days.
Assay [12] concerns M avium ATCC 700897. Briefly: MIC against MAC strains, agar dilution. It counts as cell-based, Mycobacterium avium. The note with it: S. No. 05 Ma-6, M avium ATCC 700897, Middle Brook 7H10 + OADC, 37° C., 14-21 days.
The test system of assay [13] is M. intracellulare F21/12. Briefly: MIC against MAC strains, agar dilution. It counts as cell-based. The conditions noted are these: S. No. 08 Mi-3, M. intracellulare F21/12, Middle Brook 7H10 + OADC, 37° C., 14-21 days.
In assay [14] the test system is M. intracellulare B-78/3. The experiment in a line: MIC against MAC strains, agar dilution. It counts as cell-based. The note with it: S. No. 09 Mi-4, M. intracellulare B-78/3, Middle Brook 7H10 + OADC, 37° C., 14-21 days.
Assay [15] relates to M. avium intracellulare 4. The experiment in a line: MIC against MAC strains, agar dilution. It counts as cell-based. The conditions noted are these: S. No. 11 Mai-2, M. avium intracellulare 4, Middle Brook 7H10 + OADC, 37° C., 14-21 days.
Assay [16] has as its system M. avium intracellulare 540/96. Briefly: MIC against MAC strains, agar dilution. It counts as cell-based. The note with it: S. No. 12 Mai-4, M. avium intracellulare 540/96, Middle Brook 7H10 + OADC, 37° C., 14-21 days.
Assay [17] relates to M. avium intracellulare 1211/96. Briefly: MIC against MAC strains, agar dilution. Type of assay: cell-based. The conditions noted are these: S. No. 13 Mai-5, M. avium intracellulare 1211/96, Middle Brook 7H10 + OADC, 37° C., 14-21 days.
Assay [18] concerns M. avium intracellulare 559/97. Briefly: MIC against MAC strains, agar dilution. It counts as cell-based. The conditions noted are these: S. No. 15 Mai-7, M. avium intracellulare 559/97, Middle Brook 7H10 + OADC, 37° C., 14-21 days.
The test system of assay [19] is M. avium intracellulare 18/98. The experiment in a line: MIC against MAC strains, agar dilution. Type of assay: cell-based. The note with it: S. No. 16 Mai-9, M. avium intracellulare 18/98, Middle Brook 7H10 + OADC, 37° C., 14-21 days.
Assay [20] relates to S. warnerii ST360. The experiment in a line: MIC, agar incorporation method. It counts as cell-based.
In assay [21] the test system is E. faecalis 5B (VRE). The experiment in a line: MIC, agar incorporation method. It counts as cell-based. The conditions noted are these: Enterococcus faecalis.
Assay [22] deals with Moraxella M6. Briefly: MIC, agar incorporation method. It counts as cell-based.
Assay [23] relates to H. influenzae R. Briefly: MIC against Haemophilus strains. It counts as cell-based. The note with it: Haemophilus influenzae; s. No. 4, H. influenzae R; read-out: MIC.
Assay [24] concerns H. influenzae 23. Briefly: MIC against Haemophilus strains. It counts as cell-based. The conditions noted are these: Haemophilus influenzae; s. No. 5, H. influenzae 23; read-out: MIC.
Assay [25] deals with H. influenzae 474. The experiment in a line: MIC against Haemophilus strains. Type of assay: cell-based. The conditions noted are these: Haemophilus influenzae; s. No. 11, H. influenzae 474; read-out: MIC.
[26] abbreviates: Mycobacterium tuberculosis, read-out: MIC.
Setting [27] is: Mycobacterium tuberculosis, M164, S. No. 10 Mt-, read-out: MIC.
Where [28] appears, read: Mycobacterium tuberculosis, V3093, S. No. 14 Mt-, read-out: MIC.
The mark [29] stands for this setting: Mycobacterium avium, read-out: MIC.

Structures are written as SMILES. Values after ≈ are worked out from the molar mass of the structure shown. Where two headings read alike, the source gives them in different places.

For the compound `NNC(=O)c1ccncc1` [INH], the MIC in assay [1] is 0.125 µg/mL; in assay [2] it was 0.06 µg/mL; in assay [3] it was 0.125 µg/mL; in [4] it was 1.0 µg/mL; in [5], 16 µg/mL; in [6], >32 µg/mL. The MIC in assay [7] (S. No. 10 Mt-) was >32 µg/mL; in assay [8] (S. No. 14 Mt-), 0.06 µg/mL; in assay [9], 16 µg/mL; in assay [10] it was 0.25 µg/mL; in assay [11], >32 µg/mL; in [12] it was 4.0 µg/mL. The MIC is 32 µg/mL in assay [13]; 16 µg/mL in assay [14]; 2.0 µg/mL in assay [15]; 4.0 µg/mL in assay [16]; 32 µg/mL in [17]; >32 µg/mL in assay [18]. Also, the MIC in assay [19] is 8.0 µg/mL.
In the case of `CC(=O)NC[C@H]1CN(c2ccc(N3CCN(c4ccc([N+](=O)[O-])s4)CC3)c(F)c2)C(=O)O1` [Compound No. 1, (S)—N-[[3-[3-Fluoro-4-[4-(5-nitro-2-thienyl)-1-piperazinyl]phenyl]-2-oxo-5-oxazolidinyl]methyl]acetamide], the MIC is 0.125 µg/mL (≈ 0.27 µM) in assay [20]; 0.25 µg/mL (≈ 0.539 µM) in assay [21] (S. No. 19, E. faecalis 5B (VRE), read-out: MIC); 0.25 µg/mL (≈ 0.539 µM) in assay [22] (S. No. 60, Moraxella M6, read-out: MIC); 8 µg/mL (≈ 17.3 µM) in assay [23]; > 16 µg/mL in assay [24]; 16 µg/mL (≈ 34.5 µM) in assay [25]. For the same compound, the MIC in assay [1] (setting [26]) is ≤ 0.125 µg/mL; in assay [2] (setting [26]) it was ≤ 0.125 µg/mL; in assay [4] (setting [26]), 0.25 µg/mL; in [5] (setting [26]) it was 1 µg/mL; in assay [6] (setting [26]), 0.5 µg/mL; in assay [7] (setting [27]), 0.5 µg/mL. In addition, the MIC in assay [8] (setting [28]) is ≤ 0.125 µg/mL; in assay [9] (setting [26]), 0.25 µg/mL; in assay [10] (setting [26]), ≤ 0.125 µg/mL; in assay [11] (Mycobacterium avium, ATCC25291, read-out: MIC), 0.25 µg/mL; in assay [12] (Mycobacterium avium, ATCC700897, read-out: MIC) it was < 0.123 µg/mL; in [13] (Mycobacterium intracellulare, read-out: MIC), 0.25 µg/mL. The MIC in assay [14] (Mycobacterium intracellulare, B78/3, read-out: MIC) was 0.25 µg/mL; in [15] (setting [29]), < 0.125 µg/mL; in assay [16] (setting [29]), 1 µg/mL; in [17] (setting [29]), 8 µg/mL; in assay [18] (setting [29]) it was 0.25 µg/mL; in [19] (setting [29]), 0.25 µg/mL.
In the case of `CO[C@H]1/C=C/O[C@@]2(C)Oc3c(C)c(O)c4c(O)c(c(/C=N/N5CCN(C)CC5)c(O)c4c3C2=O)NC(=O)/C(C)=C\C=C\[C@H](C)[C@H](O)[C@@H](C)[C@@H](O)[C@@H](C)[C@H](OC(C)=O)[C@@H]1C` [RIF], the MIC in assay [1] is 0.25 µg/mL; in assay [2] it was 0.5 µg/mL; in [3] it was 0.25 µg/mL; in [4], 16 µg/mL; in assay [5], >32 µg/mL; in assay [6] it was >32 µg/mL. Further, the MIC was >32 µg/mL in assay [7] (S. No. 10 Mt-); 2.0 µg/mL in [9]; >32 µg/mL in assay [11]; 1.0 µg/mL in assay [12]; 4.0 µg/mL in assay [13]; 0.25 µg/mL in [14]. In addition, the MIC was 0.25 µg/mL in assay [15]; >32 µg/mL in assay [16]; 0.25 µg/mL in assay [17]; >32 µg/mL in assay [18]; >32 µg/mL in assay [19].
`CC(=O)NC[C@H]1CN(c2ccc(N3CCOCC3)c(F)c2)C(=O)O1` [Linezolid, reference compound]: the MIC in assay [20] is < 0.5 µg/mL; in assay [21] (VRE) it was 2 µg/mL (≈ 5.93 µM); in assay [22] (Moraxella, M6), 4 µg/mL (≈ 11.9 µM); in assay [23], 16 µg/mL (≈ 47.4 µM); in assay [24], 16 µg/mL (≈ 47.4 µM); in assay [25], 16 µg/mL (≈ 47.4 µM). The MIC in assay [1] (setting [26]) was 1 µg/mL; in assay [2] (setting [26]), 1 µg/mL; in assay [3] (setting [26]), 1 µg/mL; in assay [4] (setting [26]) it was 4 µg/mL; in assay [5] (setting [26]) it was > 32 µg/mL; in [6] (setting [26]), > 32 µg/mL. In addition, the MIC came out at 32 µg/mL in assay [7] (setting [27]); 1 µg/mL in assay [8] (setting [28]); 32 µg/mL in assay [9] (setting [26]); 0.5 µg/mL in assay [10] (setting [26]); 8 µg/mL in [15] (setting [29]).
